Test results from patent publication US20030040540A1, “Bromonitrothienyldioxanes” (priority 2001, published 2003).
≈ marks a conversion by molar mass, not a printed value.

Key:
Pseudomonas aeroginosa = assay: MIC against bacteria on Landy agar (Use Example A); type: cell-based; conditions: 3 days at 28° C., 60 to 70% relative atmospheric humidity, no colonization whatsoever; for MIC: Pseudomonas, 72 h, read-out: Minimum inhibitory concentrations Pseudomonas aeroginosa
Protocol: (§1) The MIC was determined after 3 days of storage at 28° C. and 60 to 70% relative atmospheric humidity.

Aspergillus niger = assay: MIC against fungi on malt extract agar (Use Example B); type: cell-based; conditions: 2 weeks at 28° C., 60 to 70% relative atmospheric humidity, no colonization whatsoever; for MIC: Aspergillus niger, 336 h, read-out: Minimum inhibitory concentrations Aspergillus niger
Protocol: (§2) The MIC was determined after 2 weeks of storage at 28° C. and 60 to 70% relative atmospheric humidity.

Chaetomium globusum = assay: as above; type: cell-based; conditions: 2 weeks at 28° C., 60 to 70% relative atmospheric humidity, no colonization whatsoever; for MIC: Chaetomium, 336 h, read-out: Minimum inhibitory concentrations Chaetomium globusum
Protocol: as §2

Bacillus subtilis = assay: MIC against bacteria on Landy agar (Use Example A); type: cell-based; conditions: 3 days at 28° C., 60 to 70% relative atmospheric humidity, no colonization whatsoever; for MIC: Bacillus subtilis, 72 h, read-out: Minimum inhibitory concentrations Bacillus subtilis
Protocol: as §1

Penicillium brevicaule = assay: MIC against fungi on malt extract agar (Use Example B); type: cell-based; conditions: 2 weeks at 28° C., 60 to 70% relative atmospheric humidity, no colonization whatsoever; for MIC: Penicillium, 336 h, read-out: Minimum inhibitory concentrations Penicillium brevicaule
Protocol: as §2

SMILES | MIC (Pseudomonas aeroginosa) [µg/mL] | MIC (Aspergillus niger) [µg/mL] | MIC (Chaetomium globusum) [µg/mL] | MIC (Bacillus subtilis) [µg/mL] | MIC (Penicillium brevicaule) [µg/mL] | melting point [°C] | Minimum inhibitory concentrations Aspergillus niger (Aspergillus niger) [ppm] | Minimum inhibitory concentrations Chaetomium globusum (Chaetomium globusum) [ppm] | Minimum inhibitory concentrations Penicillium brevicaule (Penicillium brevicaule) [ppm] | Minimum inhibitory concentrations Bacillus subtilis (Bacillus subtilis) [ppm] | Minimum inhibitory concentrations Pseudomonas aeroginosa (Pseudomonas aeroginosa) [ppm]
O=[N+]([O-])C1(Br)COCOC1 [5-bromo-5-nitro-1,3-dioxane, reference compound] | 750 (≈ 3540 µM) | 1000 (≈ 4720 µM) | 500 (≈ 2360 µM) |  |  |  |  |  |  |  | 
O=[N+]([O-])C1(Br)COC(c2cccs2)OC1 (stereo not shown) [Example 1, 5-bromo-5-nitro-2-(2-thienyl)-1,3-dioxane] | 100 (≈ 340 µM) | 200 (≈ 680 µM) | 100 (≈ 340 µM) | < 40 | < 40 |  |  |  |  |  | 
O=[N+]([O-])C1(Br)COC(c2ccc(Cl)s2)OC1 (stereo not shown) [Example 2, 5-bromo-2-(5-chloro-2-thienyl)-5-nitro-1,3-dioxane] | 100 (≈ 304 µM) | 100 (≈ 304 µM) | < 40 | < 40 | < 40 | 55 to 57 |  |  |  |  | 
O=[N+]([O-])C1(Br)COC(c2ccc(Br)s2)OC1 (stereo not shown) [Example 3] |  |  |  |  |  |  | 200 | 100 | <40 |  | 
Cc1ccc(C2OCC(Br)([N+](=O)[O-])CO2)s1 (stereo not shown) [Example 4] |  |  |  |  |  |  | 200 | 100 | <40 |  | 
Cc1ccsc1C1OCC(Br)([N+](=O)[O-])CO1 (stereo not shown) [Example 5] |  |  |  |  |  |  | 200 | <40 | <40 |  | 
O=[N+]([O-])c1ccc(C2OCC(Br)([N+](=O)[O-])CO2)s1 (stereo not shown) [Example 7] |  |  |  |  |  |  | 200 | 100 | <40 | <40 | 200
O=[N+]([O-])c1sc(C2OCC(Br)([N+](=O)[O-])CO2)cc1Br (stereo not shown) [Example 8] |  |  |  |  |  |  | >400 | 400 | 200 |  | 
